Experimental data published in US20140336182A1, “Aurora Kinase Modulators and Method of Use” (Amgen Inc., priority 2013, published 2014).

Tested on: HeLa cells
Experiment: HeLa cell 24 hr ploidy assay (DNA content)
Format: cell-based
Conditions: Homo sapiens, HeLa, HeLa cells, 4N ploidy, average, read-out: 24h_4NPloidy EC50_IP (uM Avg)
Method in brief: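 DNA content measured by Hoechst 33342 nuclear staining (0.5 ug/ml, 45 min RT) and high-content imaging of fixed HeLa cells after 24 h compound exposure in 0.25% DMSO. Fractions of 4N and >4N cells fitted to dose curves giving EC50 IP, EC50 transit, Max and Min.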

SMILES | EC50
N#Cc1ccc2c(Oc3ccc(Nc4nnc(-c5ccc(Cl)c(C#N)c5)c5ccccc45)cc3)ccnc2c1 [compound 231] | 0.067 µM
COc1cnc2c(Sc3ccc(Nc4nnc(-c5ccc(Cl)cc5)c5ccccc45)cc3)ccnc2c1 [compound 232] | 0.004 µM
COc1cnc2c(Oc3ccc(Nc4nnc(-c5ccc(Cl)cc5C)c5ccccc45)cc3)ccnc2c1 [compound 233] | 0.6 µM
COc1cnc2c(Oc3ccc(Nc4nnc(-c5ccccc5)cc4C(C)C)cc3)ccnc2c1 [compound 234] | 0.196 µM
COc1cnc2c(Oc3ccc(Nc4nnc(-c5ccc(Cl)nc5)c5ccccc45)cc3)ccnc2c1 [compound 235, 4-(6-chloro-3-pyridinyl)-N-(4-((7-(methyloxy)-1,5-naphthyridin-4-yl)oxy)phenyl)-1-phthalazinamine] | 0.058 µM
COc1cnc2c(Oc3ccc(Nc4nnc(-c5ccc(Cl)c(C)c5)c5ccccc45)cc3)ccnc2c1 [compound 236] | 0.011 µM
COc1cnc2c(Oc3ccc(Nc4nnc(-c5ccc(SC)cc5)c5ccccc45)cc3)ccnc2c1 [compound 237] | 0.03 µM
COc1ccc2nccc(Oc3ccc(Nc4nnc(-c5ccccc5)c5ccccc45)cc3)c2c1 [compound 238] | 0.053 µM
COc1ccc2nccc(Oc3ccc(Nc4nnc(-c5ccc(Cl)cc5)c5ccccc45)cc3)c2c1 [compound 239] | 0.001 µM
COc1cccc(-c2nnc(Nc3ccc(Oc4ccnc5cc(-c6cncn6C)sc45)cc3)c3ccccc23)n1 [compound 240] | 0.01 µM
Clc1ccc(-c2nnc(Nc3ccc(Oc4ccnc5[nH]ccc45)cc3)c3ccccc23)cc1 [compound 241] | 0.101 µM
N#Cc1ccc2c(Oc3ccc(Nc4nnc(-c5ccc(Cl)cc5)c5ccccc45)cc3)ccnc2c1 [compound 242] | 0.019 µM
COc1cnc2c(Oc3ccc(Nc4nnc(-c5ccc(C)c(F)c5)c5ccccc45)cc3)ccnc2c1 [compound 243] | 0.006 µM
Brc1cnc2c(Oc3ccc(Nc4nnc(-c5ccccc5)c5ccccc45)cc3)ccnc2c1 [compound 245] | 0.381 µM
COc1cnc2c(Oc3ccc(Nc4nnc(-c5ccc(F)c(C)c5)c5ccccc45)cc3)ccnc2c1 [compound 246, 4-(4-fluoro-3-methylphenyl)-N-(4-((7-(methyloxy)-1,5-naphthyridin-4-yl)oxy)phenyl)-1-phthalazinamine] | 0.03 µM
COc1cnc2c(N(C)c3ccc(Nc4nnc(-c5cc(C)cs5)c5ccccc45)cc3)ccnc2c1 [compound 247] | 0.112 µM
N#Cc1ccc2c(Sc3ccc(Nc4nnc(-c5ccc(Cl)cc5)c5ccccc45)cc3)ccnc2c1 [compound 248, 4-((4-((4-(4-chlorophenyl)-1-phthalazinyl)amino)phenyl)thio)-7-quinolinecarbonitrile] | 0.022 µM
Cn1cncc1-c1cc2nccc(Oc3ccc(Nc4nnc(-c5ccc(Cl)cc5)c5ccccc45)cc3)c2s1 [compound 249] | 0.008 µM
Clc1ccc(-c2nnc(Nc3ccc(Oc4ccnc5ccsc45)cc3)c3ccccc23)cc1 [compound 250, 4-(4-chlorophenyl)-N-(4-(thieno[3,2-b]pyridin-7-yloxy)phenyl)-1-phthalazinamine] | 0.031 µM
c1ccc(-c2nnc(Nc3ccc(Oc4ccnc5ccsc45)cc3)c3ccccc23)cc1 [compound 251] | 0.227 µM
Cc1ccc(-c2nnc(Nc3ccc(Oc4ccnc5ccsc45)cc3)c3ccccc23)cc1 [compound 252] | 0.027 µM
COc1cnc2c(Oc3ccc(Nc4nnc(-c5ccc(Cl)cc5OC)c5ccccc45)cc3)ccnc2c1 [compound 253] | 0.835 µM
COc1cc2nncc(Oc3ccc(Nc4nnc(-c5ccccc5)c5ccccc45)cc3)c2cc1OC [compound 254] | > 1.2 µM
Cc1ccc(-c2nnc(Nc3ccc(Oc4ccnc5cc(-c6cncn6C)sc45)cc3)c3ccccc23)nc1 [compound 255] | 0.014 µM
CCc1cc(-c2ccc(Cl)cc2)nnc1Nc1ccc(Oc2ccnc3cc(OC)cnc23)cc1 [compound 256] | 0.049 µM
c1ccc(-c2nnc(Nc3ccc(Oc4ncnc5nc[nH]c45)cc3)c3ccccc23)cc1 [compound 257] | > 1.2 µM
